Assay results as given in PMC10650955, “α-Aminophosphonate inhibitors of metallo-β-lactamases NDM-1 and VIM-2” (RSC Medicinal Chemistry, 2023).
Counter-ions that a name gives are not always drawn.

Experiments:
[1] = molecular target: T1, VIM-2 (Escherichia coli, UniProt Q5U7L7); assay: Dose rate inhibition studies for IC50 determination, VIM-2 enzymatic assay; type: biochemical; conditions: inhibitor 0-800 μM, 3 parallel measurements, N.I. = no enzyme inhibitory activity observed; for IC50: Enzyme IC50 VIM-2, 0.1 nM VIM-2, 100 μM ZnCl2, nitrocefin substrate; for Enzyme IC50 VIM-2: 0.1 nM VIM-2, 100 μM ZnCl2, nitrocefin substrate
T1 construct: made in house
Description: (§1) The […] synthesized compounds 5a–l were tested for their inhibitory activities against NDM-1, VIM-2 (Table 1), and GIM-1 in an in vitro enzymatic assay (ESI ^†).[41] The inhibitory activity was measured using enzyme concentrations of 0.1 nM VIM-2, 10 nM NDM-1 or 1 nM GIM-1, with an excess Zn(II) (100 μM, see Experimental methods), with inhibitor compounds with concentrations from 0 to 800 μM. Each data point was measured in triplicates. […] This is in line with previous reports.[42,43]
(§2) A 100 μl solution with buffer (50 mM HEPES (pH 7.2), 100 μM ZnCl2, 2.5% DMSO), purified enzyme (0.1 nM VIM-2, 10 nM NDM-1 or 1 nM GIM-1) and 800–0 μM inhibitor was incubated in a 96 well plate at 25 °C for 5 min. In addition, the enzyme buffer contained 400 μg ml^−1 bovine serum albumin (BSA) to prevent protein unfolding and loss of activity due to low concentrations.[67,68] 100 μM of the reporter substrate nitrocefin (VIM-2, GIM-1) or imipenem (NDM-1) was added to the enzyme–inhibitor solution and the increase in absorbance at 482 nm (nitrocefin) or 300 nm (imipenem) was recorded on a Spectramax M4 spectrophotometer (Molecular Devices). Each data point was performed in triplicates and the initial velocity for each inhibitor concentration was analyzed by a log [inhibitor] vs. response curve fitting to calculate IC50 in GraphPad Prism 9.2 software.

[2] = molecular target: T2, NDM-1 (Klebsiella pneumoniae, UniProt C7C422); assay: Dose rate inhibition studies for IC50 determination, NDM-1 enzymatic assay; type: biochemical; conditions: inhibitor 0-800 μM, 3 parallel measurements, N.I. = no enzyme inhibitory activity observed; for Enzyme IC50 NDM-1: 10 nM NDM-1, 100 μM ZnCl2, imipenem substrate; for IC50: Enzyme IC50 NDM-1, 10 nM NDM-1, 100 μM ZnCl2, imipenem substrate
T2 construct: made in house
Description: as §1, §2

[3] = molecular target: T3, 15N-labelled VIM-2 (Escherichia coli, UniProt Q5U7L7); assay: 1H,15N HSQC NMR chemical shift perturbation titration, VIM-2; type: binding; conditions: VIM-2 Kd, 0-16 equiv. ligand, pH 7.0, 310 K
T3 construct: made in house
Description: Solution NMR spectroscopy is a powerful tool to assess protein–ligand interactions under close to physiological conditions.[47] We, therefore, performed NMR chemical shift perturbation (CSP, for details, see section S8, ESI ^†) experiments to identify the amino acid residues of NDM-1 and VIM-2 that are involved in inhibitor binding, making use of the previously published protein assignments.[48,49] Titrations were conducted using ^15N-labelled proteins with 0, 0.5, 1, 2, 4, 8, and 16 equiv. of 5 inhibitors for NDM-1 and of 7 inhibitors for VIM-2.
For the titrations, ^15N-labelled NDM-1 and ^15N-labelled VIM-2 (250 μM), and titrated ligands (0.5 equiv. in 1 μL) were prepared in the same buffer as the protein (20 mM KPO4, 0.1 mM ZnCl2, pH 7.0 with 10% D2O and 2.5% DMSO-d6). ^1H,^15N HSQC spectra were acquired with 128 × 1024 complex points (F1 × F2) and spectral width of 9090 × 2740 Hz on ^15N-labeled NDM-1/VIM-2 and with every titration step up to 1 : 16 ratio between protein : ligand (0, 0.5, 1, 2, 4, 8, and 16 equiv. of ligand). All experiments were recorded on a Bruker 600 MHz spectrometer at 310 K equipped with a 5 mm TCI cryogenic probe. The NMR data were processed on the MestReNova software with the Mnova Binding plugin. The weighted average chemical shift perturbations (CSP) for the backbone amides were calculated from the observed chemical shift differences in the proton and nitrogen dimensions using the equation (chemical shift scaling factors: FH = 1, FN = 0.156) CSP = Δδ1H,15N = [drawing 13] .
7. Chemical shift perturbation histograms
Chemical shift perturbation was calculated according equation (1) 2
CSP = Δδ(1H,15N) = √(Δδ1H2 + (1⁄R × Δδ15N2) Rscale = 6.5 (1)
Where Δδ1H is the chemical shift change for proton dimension, Δδ15N is the chemical shift change for nitrogen dimension, Rscale is a
The chemical shift perturbations (CSP) were classified as significant (SSP) when the observed Δδ(1H,15N) was greater than the population
mean plus the standard deviation (µ+1σ) – solid line; (µ+2σ) – dashed line, and (µ+3σ) – dashed line.
Further on, Kd was calculated according: 3
([P]+[L]+Kd)− √([P]+[L]+Kd)2−4[P][L]
ΔδmaxΔδobs = Δδmax 2[P] (2)
Where Kd is the dissociation constant, [P] and [L] are protein and ligand concentrations, respectively. Δδmax were estimated in
MestReNova by extrapolation of the obser ved chemical shift differences Δδobs.

T2 sequence (C7C422 29-270 limits assumed): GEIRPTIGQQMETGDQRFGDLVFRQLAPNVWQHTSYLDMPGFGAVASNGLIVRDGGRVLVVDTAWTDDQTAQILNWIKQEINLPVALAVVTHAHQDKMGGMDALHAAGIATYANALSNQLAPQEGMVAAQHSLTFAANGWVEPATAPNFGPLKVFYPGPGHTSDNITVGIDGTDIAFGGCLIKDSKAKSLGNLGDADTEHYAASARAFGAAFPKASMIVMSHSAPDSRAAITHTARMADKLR

SMILES	IC50 [1]	Enzyme IC50 NDM-1 [2]	Kd [3]	Enzyme IC50 VIM-2 [1]	IC50 [2]
O=C(NC(C1CCCCN1)P(=O)(O)O)c1csc2c1CCCC2 (single isomer, unassigned) [Compound 5e-1, (Piperidin-2-yl(4,5,6,7-tetrahydrobenzo[b]thiophene-3-carboxamido)methyl)phosphonic acid hydrochloride]	69.7 ± 26.2 µM	–	–	–	–
Cl.O=C(NC(C1CCCCN1)P(=O)(O)O)c1csc2c1CCCC2 (single isomer, unassigned) [Compound 5e-2, (Piperidin-2-yl(4,5,6,7-tetrahydrobenzo[b]thiophene-3-carboxamido)methyl)phosphonic acid hydrochloride]	46.1 ± 15.6 µM	N.I.	–	–	–
Cl.O=C(NC(C1CCCCN1)P(=O)(O)O)c1scc2c1CCCC2 (single isomer, unassigned) [Compound 5f-1, (Piperidin-2-yl(4,5,6,7-tetrahydrobenzo[c]thiophene-1-carboxamido)methyl)phosphonic acid hydrochloride]	37 ± 3 µM	N.I.	–	–	–
Cl.O=C(NC(C1CCCCN1)P(=O)(O)O)c1scc2c1CCCC2 (single isomer, unassigned) [Compound 5f-2, (Piperidin-2-yl(4,5,6,7-tetrahydrobenzo[c]thiophene-1-carboxamido)methyl)phosphonic acid hydrochloride]	18.8 ± 0.5 µM	N.I.	–	–	–
Cl.O=C(Cc1cc2ccccc2s1)NC(C1CCCCN1)P(=O)(O)O (single isomer, unassigned) [Compound 5k-1, ((2-(Benzo[b]thiophen-2-yl)acetamido)(piperidin-2-yl)methyl)phosphonic acid hydrochloride]	56.6 ± 1 µM	N.I.	–	–	–
O=C(Cc1cc2ccccc2s1)NC(C1CCCCN1)P(=O)(O)O (single isomer, unassigned) [Compound 5k-2, ((2-(Benzo[b]thiophen-2-yl)acetamido)(piperidin-2-yl)methyl)phosphonic acid hydrochloride]	28.7 ± 10.1 µM	–	–	–	–
Cc1[nH]c(=S)sc1CC(=O)NC(C1CCCCN1)P(=O)(O)O (centres unmarked) [Compound 5a-1, ((2-(4-Methyl-2-thioxo-2,3-dihydrothiazol-5-yl)acet-amido)(piperidin-2-yl)methyl)phosphonic acid hydro-chloride]	353 ± 62 µM	N.I. ^b	900 ± 100 µM	–	–
Cc1[nH]c(=S)sc1CC(=O)NC(C1CCCCN1)P(=O)(O)O (centres unmarked) [Compound 5a-2, ((2-(4-Methyl-2-thioxo-2,3-dihydrothiazol-5-yl)acet-amido)(piperidin-2-yl)methyl)phosphonic acid hydro-chloride]	–	N.I.	–	N.I.	–
O=C(NC(C1CCCCN1)P(=O)(O)O)c1cccs1 (centres unmarked) [Compound 5b-2, (Piperidin-2-yl(thiophene-2-carboxamido)methyl)phos-phonic acid hydrochloride]	7.2 ± 0.4 µM	N.I.	1400 ± 100 µM	–	–
O=C(NC(C1CCCCN1)P(=O)(O)O)c1ccsc1 (centres unmarked) [Compound 5c-2, (Piperidin-2-yl(thiophene-3-carboxamido)methyl)phos-phonic acid hydrochloride]	14.6 ± 2.3 µM	N.I.	–	–	–
Cl.O=C(NC(C1CCCCN1)P(=O)(O)O)c1cc2c(s1)CCCC2 (centres unmarked) [Compound 5d-1, (Piperidin-2-yl(4,5,6,7-tetrahydrobenzo[b]thiophene-2-carboxamido)methyl)phosphonic acid hydrochloride]	244 ± 35 µM	N.I.	–	–	–
Cl.O=C(NC(C1CCCCN1)P(=O)(O)O)c1cc2c(s1)CCCC2 (centres unmarked) [Compound 5d-2, (Piperidin-2-yl(4,5,6,7-tetrahydrobenzo[b]thiophene-2-carboxamido)methyl)phosphonic acid hydrochloride]	4.5 ± 0.8 µM	N.I.	–	–	–
O=C(NC(C1CCCCN1)P(=O)(O)O)c1cc2ccccc2s1 (centres unmarked) [Compound 5g-1, ((Benzo[b]thiophene-2-carboxamido)(piperidin-2-yl)methyl)phosphonic acid hydrochloride]	45 ± 5 µM	–	–	–	46.7 ± 9.7 µM
O=C(NC(C1CCCCN1)P(=O)(O)O)c1cc2ccccc2s1 (centres unmarked) [Compound 5g-2, ((Benzo[b]thiophene-2-carboxamido)(piperidin-2-yl)methyl)phosphonic acid hydrochloride]	4.1 ± 2.1 µM	–	–	–	46.8 ± 5.5 µM
O=C(NC(C1CCCCN1)P(=O)(O)O)c1csc2ccccc12 (centres unmarked) [Compound 5h-1, ((Benzo[b]thiophene-3-carboxamido)(piperidin-2-yl)met-hyl)phosphonic acid hydrochloride]	40.6 ± 3.9 µM	N.I.	–	–	–
O=C(NC(C1CCCCN1)P(=O)(O)O)c1csc2ccccc12 (centres unmarked) [Compound 5h-2, ((Benzo[b]thiophene-3-carboxamido)(piperidin-2-yl)met-hyl)phosphonic acid hydrochloride]	11.6 ± 4.7 µM	N.I.	–	–	–
O=C(Cc1ccsc1)NC(C1CCCCN1)P(=O)(O)O (centres unmarked) [Compound 5j-2, (Piperidin-2-yl(2-(thiophen-3-yl)acetamido)methyl)phos-phonic acid hydrochloride]	–	N.I.	–	N.I.	–
Cl.O=C(Cc1csc2ccccc12)NC(C1CCCCN1)P(=O)(O)O (centres unmarked) [Compound 5l-1, ((2-(Benzo[b]thiophen-3-yl)acetamido)(piperidin-2-yl)methyl)phosphonic acid hydrochloride]	–	–	–	N.I.	7.9 ± 1.6 µM
O=C(Cc1csc2ccccc12)NC(C1CCCCN1)P(=O)(O)O (centres unmarked) [Compound 5l-2, ((2-(Benzo[b]thiophen-3-yl)acetamido)(piperidin-2-yl)methyl)phosphonic acid hydrochloride]	94.4 ± 5.8 µM	–	–	–	27.8 ± 21 µM
